# Biological target: Alpha-glucosidase MAL12 (Saccharomyces cerevisiae (strain ATCC 204508 / S288c), UniProt P53341)
# Experiment: Alpha-glucosidase Inhibition Assay
# Conditions: 37 °C
# Procedure: A 100 µL assay mixture containing 70 µL phosphate buffer saline (50 mM at pH 6.8), 10 µL corresponding test compounds dissolved in methanol/DMSO (0.5 mM) and 10 µL (0.057 units) α-glucosidase enzyme were mixed, pre-incubated for 10 min at 37C and the abosrbance was recorded at 400 nm. The reaction was initiated by the addition of 10 µL p-nitrophenyl-α-D-glucopyranoside (substrate, 0.5 mM/well).
# Sequence of Alpha-glucosidase MAL12 (P53341 whole entry): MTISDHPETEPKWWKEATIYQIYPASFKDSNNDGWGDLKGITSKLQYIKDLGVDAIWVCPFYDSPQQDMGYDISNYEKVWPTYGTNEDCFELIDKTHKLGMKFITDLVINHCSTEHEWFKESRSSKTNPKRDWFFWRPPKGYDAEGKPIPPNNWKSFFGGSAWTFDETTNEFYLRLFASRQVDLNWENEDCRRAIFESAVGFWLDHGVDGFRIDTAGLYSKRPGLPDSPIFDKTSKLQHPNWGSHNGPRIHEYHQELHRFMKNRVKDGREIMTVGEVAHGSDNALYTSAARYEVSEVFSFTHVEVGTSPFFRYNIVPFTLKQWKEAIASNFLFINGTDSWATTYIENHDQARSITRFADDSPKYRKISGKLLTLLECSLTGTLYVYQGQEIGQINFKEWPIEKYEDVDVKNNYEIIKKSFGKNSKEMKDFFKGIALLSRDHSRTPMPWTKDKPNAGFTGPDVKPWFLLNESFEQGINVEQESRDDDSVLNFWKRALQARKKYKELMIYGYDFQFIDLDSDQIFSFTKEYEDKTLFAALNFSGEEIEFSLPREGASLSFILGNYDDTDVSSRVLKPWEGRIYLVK
row,Structure (SMILES),IC50
1,Oc1ccc(-c2nc(-c3ccccc3)c(-c3ccccc3)[nH]2)cc1 [SR-01000511510-2],97.1 µM
2,Clc1ccc(-c2nc(-c3ccccc3)c(-c3ccccc3)[nH]2)cc1,458 µM
3,"COc1cccc(-c2nc(-c3ccccc3)c(-c3ccccc3)[nH]2)c1O [2-(4,5-Diphenyl-1H-imidazol-2-yl)-6-methoxyphenol (3g)]",107 µM
4,Oc1ccccc1-c1nc(-c2ccccc2)c(-c2ccccc2)[nH]1,74.3 µM
5,COc1cccc(-c2nc(-c3ccccc3)c(-c3ccccc3)[nH]2)c1,359 µM
